# Assay results from patent publication US20140315973A1, “PARP-1 INHIBITORS” (priority 2010, published 2014).
# How the values were obtained:
# [1] = tested on: HBV core promoter; assay: Dual-luciferase reporter assay of HBV core promoter; type: cell-based, HBV genotype A
# Text: The HBV core promoter deletions were cloned using a multi-step strategy. First, the wild-type core promoter from HBV genotype A was inserted via KpnI and HindIII sites on the PGL3 Basic vector. Using this as the template, PGLF (5′ TCCCCAGTGCAAGTGCAGG) was used with reverse primer BX, where “X” denotes the deletion number and contains the nucleotide sequence flanking the 3′ end of the deletion. This amplifies the 5′ half of mutant core promoter. Primer CX containing nucleotide sequences flanking the 5′ end of the deletion site was then used with reverse primer PGLR (5′ […]) to synthesize the 3′ end of the mutant promoter. The 2 halves were annealed via their complementary sequences and amplified using primers PGLF and PGLR. PCR was performed using the Expand High Fidelity PCR System (Roche), and ran on 1% agarose gels in TBE buffer. DNA of appropriate sizes were extracted using the Qiaquick Gel Extraction Kit (Qiagen), double-digested with enzymes from New England BioLabs, then annealed using the Quick Ligation Kit.
# Assays were performed with the Dual-Luciferase® Reporter Assay System (Promega) with modifications. HepG2 cells were seeded 18 hours prior to transfection in 24-well plates in triplicates at a density of 1.5×10^5 cells per well. Transfection was performed with 2.2 μl Lipofectamine 2000 (Invitrogen), 1 μg of PGL3 Basic construct plasmid and 15 ng of Renilla-luciferase construct per well. Additionally, 250 ng of over-expression plasmids for PARP-1 mutants were used when indicated. Transfected cells were lysed with 60 μl lysis buffer at 37° C. on a shaking incubator for 20 minutes after washing thrice with ice-cold PBS 30 hours post-transfection and 50 μl of the lysate was transferred on ice into black 96-well plates with clear bottoms (Corning), and luminescence measured with the GloMax® Multi-Microplate Multimode Reader (Promega).
# [2] = tested on: HBV; assay: HBV transcripts in HepG2 cells transfected with HBV-RFP; type: cell-based, HBV genotype A; conditions: 15 μM, added 24 hours after transfection, 48 hours later
# Text: Full-length replicative HBV genotype A (approximately 1.1X HBV genome starting from nucleotide 1535, ending at nucleotide 1930) driven by its own core promoter cloned from another construct and inserted into pcDNA3.1+ via the MfeI and MluI restriction sites, […] of the CMV promoter. Primers used are as follows: […]
# (§1) The coding sequence for red fluorescent protein (RFP) was cut from the pTurboFP635N (Evrogen) and inserted into the pcDNA3.1+ vector containing the HBV construct into the MCS via KpnI and NotI sites.
# [3] = tested on: HepG2 cells; assay: Viable HBV-RFP transfected HepG2 cells; type: cell-based; conditions: 15 μM, 72 hours after PARP inhibition
# Text: as §1
# [4] = tested on: breast or ovarian cancer; conditions: cited from earlier work
smiles,measurement,setting,value
"NC(=O)c1cccc(N)c1 [3-AB, 3-aminobenzamide]",transcription (luciferase expression) at wild-type HBV core promoter,"[1]; HepG2, inhibitor added 24 hours after transfection",increased transcription at the HBV core promoter in a dose-dependent manner
same,"luciferase expression, mutant HBV core promoter with deletion of the PARP-1 binding site (Del-PARP1 motif)",[1]; HepG2 and Huh-7,negligible effect
same,"luciferase expression, wild-type HBV core promoter",[1]; Huh-7,increased luciferase expression
CN(C)CC(=O)Nc1ccc2[nH]c(=O)c3ccccc3c2c1 [PJ-34],increase in relative amounts of HBV transcripts,[2],more than 3 fold
same,relative percentage of viable cells that were HBV-transfected vs DMSO control,[3],significantly higher
O=C(c1cc(Cc2n[nH]c(=O)c3ccccc23)ccc1F)N1CCN(C(=O)C2CC2)CC1 [olaparib],durable objective antitumor activity,"[4]; 60 patients, including 22 BRCA mutation carriers",observed only in confirmed carriers of a BRCA1 or BRCA2 mutation
same,"BRCA carriers with ovarian, breast, or prostate cancers showing a clinical benefit",[4]; Twelve of 19 BRCA carriers,63%
same,side-effect profile,"[4]; phase 1, orally active",acceptable side-effect profile
